Laboratory results: patent US20250213587A1, “ITK INHIBITORS FOR INCREASING TH1 CELL ACTIVITY” (Corvus Pharmaceuticals, Inc., priority 2022, published 2025)

Legend:
ITK [1] = biological target: T1, ITK (Homo sapiens, UniProt Q08881); assay: Jump dilution assay; type: binding; parameters: purchased Invitrogen; conditions: for reversibility of ITK inhibition on dilution: dilution into competitive probe
T1 sequence (Q08881 1-620): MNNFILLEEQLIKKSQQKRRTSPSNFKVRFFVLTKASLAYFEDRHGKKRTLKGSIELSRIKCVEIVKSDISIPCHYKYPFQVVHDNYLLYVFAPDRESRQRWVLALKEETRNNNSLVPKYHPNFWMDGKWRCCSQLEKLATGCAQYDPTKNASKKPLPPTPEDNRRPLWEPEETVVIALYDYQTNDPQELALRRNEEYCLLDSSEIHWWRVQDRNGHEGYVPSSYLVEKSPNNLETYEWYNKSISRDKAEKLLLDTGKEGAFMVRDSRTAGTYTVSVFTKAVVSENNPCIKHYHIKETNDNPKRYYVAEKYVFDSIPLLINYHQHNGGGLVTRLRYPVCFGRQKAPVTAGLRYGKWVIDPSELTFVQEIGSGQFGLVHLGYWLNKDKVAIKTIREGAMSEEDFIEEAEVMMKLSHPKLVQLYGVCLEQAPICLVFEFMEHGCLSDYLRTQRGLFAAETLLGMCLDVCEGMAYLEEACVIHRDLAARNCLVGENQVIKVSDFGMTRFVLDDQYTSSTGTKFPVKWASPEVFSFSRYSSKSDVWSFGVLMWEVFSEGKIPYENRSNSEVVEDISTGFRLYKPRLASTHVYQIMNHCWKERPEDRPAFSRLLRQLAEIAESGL
Experimental: The assay format is similar to the Competitive Tracer-binding Assay and relies on the reversible binding of tracer 236 to recombinant tagged human ITK. […] The mixture was then filtered through a desalting column (Thermo Scientific, Zeba Spin Desalting Column, 40K MWCO) to remove unbound inhibitor. The assay was initiated immediately after the desalting step by diluting the eluate containing the inhibited kinase complex 50-fold into a solution of anti-tag antibody (2 nM final) and excess tracer 236 (40 nM final). Dissociation of inhibitor and binding of tracer was monitored immediately after assay initiation using an EnVision plate reader (excitation 340 nm, dual emission at 665 nm and 615 nm). Reagents including GST-tagged recombinant human ITK, Kinase tracer 236, Lanthascreen Eu-Anti-GST antibody and kinase buffer A were purchased from ThermoFisher Scientific/Invitrogen. Each data point represents the mean of technical triplicates. Equation 3 was fitted to the BMS-509744 data to obtain the rate constant using GraphPad Prism from which the half-life was calculated.

human T cells (PBMC) = assay: T cell activation, Th1 skewing, cell number and viability; type: cell-based
Experimental: Fresh PBMCs from healthy human donors were centrifuged and reconstituted at 0.312×10^6 cells/mL in RPMI 1640 medium+10% heat-inactivated FBS+1× penicillin streptomycin and 100,000 cells/well were distributed into 24 well tissue culture plate. Cells were incubated at 37° C. for 1 hour, followed by the addition of CPI 596 or vehicle. The cells were then incubated at 37° C. for 1 hour, followed by the addition of […] anti CD3 and anti CD28 (both eBioscience). Cells were incubated at 37° C. for 6 days, with supplemental media supplied on day 3. On Day 6, the cells were transferred to a 96 deep well plate, washed, and treated with 50 nM phorbol 12-myristate 13-acetate, 1 μg/mL ionomycin, and 1 μg/mL brefeldin A, and then incubated at 37° C. for 4 hours. The cells were then fixed and permeabilized using eBioscience Fox3/transcription factor staining buffer. Cells were treated with Fc block (BioLegend) and then stained with CD3 BV605, CD45RA PerCP-Cy5.5, Tbet PE, IFNγ AF488, IL-4 APC (BioLegend), CD4 PE-Cy7, cPARP AF700 (BD Biosciences), and CD8 Krome Orange (Beckman Coulter). For flow cytometry, 300,000 cells were acquired on Cytoflex (Beckman Coulter). Data were analyzed using Flowjo software. The percentage of CD4^+ T cells that were positive for IFNγ and IL 4 were reported.

ITK [2] = biological target: T1, ITK; assay: ITK occupancy in patients at steady state; type: in vivo
[3] = system: IL-2 secretion by Jurkat T cells; assay: Inhibition of IL-2 production in Jurkat cells; type: cell-based; conditions: Homo sapiens, washout, anti-CD3 18 hours, 15 determinations
Experimental: Jurkat cells (0.25×10^6) in Dulbecco's Modified Eagle's medium (Gibco) supplemented with 5% FBS were seeded in each well of a 96 well MultiScreenR HV filter plate (EMD Millipore) placed on top of a 96 well collection plate. CPI 818 was serially diluted in DMSO and added to the culture. After a 2-hour incubation at 37° C. the plates were centrifuged (188×g for 15 seconds) to remove the inhibitor-containing medium from the filter plate. Cells were washed twice by resuspending with 200 μL of medium per well and centrifuged. Cells in each well were then resuspended with 1.25×10^6 (50 μL) of Dynabeads CD3 (Life Technologies) and incubated for 18 hours at 37° C. Conditioned media was collected by centrifugation (188×g for 1 min). Human IL-2 concentration was measured with the AlphaLISA human IL2 Kit (PerkinElmer) and data collected on an Envision Plate Reader (PerkinElmer). Data were analyzed and graphed using GraphPad Prism version b7.0b. Technical duplicates of the concentration response were collected at each determination.

ZAP-70 = ZAP-70 (Homo sapiens, UniProt P43403); assay: Human kinome profiling at 1.0 μM, ZAP-70; type: biochemical; conditions: read-out: percent control, ZAP-70
RLK = biological target: T2, RLK (Homo sapiens, UniProt P42681); assay: Human kinome profiling at 1.0 μM, RLK; type: biochemical; conditions: read-out: percent control, RLK
T2 construct: purchased Invitrogen PV5860
T2 sequence (P42681 whole entry): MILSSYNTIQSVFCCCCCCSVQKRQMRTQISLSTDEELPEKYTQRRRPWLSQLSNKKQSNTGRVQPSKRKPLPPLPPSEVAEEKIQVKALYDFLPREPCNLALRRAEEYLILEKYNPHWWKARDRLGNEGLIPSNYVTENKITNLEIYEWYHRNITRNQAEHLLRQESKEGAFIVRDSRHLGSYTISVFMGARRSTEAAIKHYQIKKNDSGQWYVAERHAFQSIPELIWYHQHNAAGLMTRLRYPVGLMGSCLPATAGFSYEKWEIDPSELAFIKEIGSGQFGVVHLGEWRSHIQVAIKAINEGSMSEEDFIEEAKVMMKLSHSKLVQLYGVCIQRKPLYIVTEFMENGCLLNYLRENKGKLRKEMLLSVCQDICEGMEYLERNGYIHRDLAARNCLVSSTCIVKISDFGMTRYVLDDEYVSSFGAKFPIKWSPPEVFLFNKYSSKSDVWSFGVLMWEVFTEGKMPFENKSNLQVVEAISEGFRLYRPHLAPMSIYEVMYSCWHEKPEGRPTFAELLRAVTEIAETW

ZAP-70, sequence (P43403 whole entry): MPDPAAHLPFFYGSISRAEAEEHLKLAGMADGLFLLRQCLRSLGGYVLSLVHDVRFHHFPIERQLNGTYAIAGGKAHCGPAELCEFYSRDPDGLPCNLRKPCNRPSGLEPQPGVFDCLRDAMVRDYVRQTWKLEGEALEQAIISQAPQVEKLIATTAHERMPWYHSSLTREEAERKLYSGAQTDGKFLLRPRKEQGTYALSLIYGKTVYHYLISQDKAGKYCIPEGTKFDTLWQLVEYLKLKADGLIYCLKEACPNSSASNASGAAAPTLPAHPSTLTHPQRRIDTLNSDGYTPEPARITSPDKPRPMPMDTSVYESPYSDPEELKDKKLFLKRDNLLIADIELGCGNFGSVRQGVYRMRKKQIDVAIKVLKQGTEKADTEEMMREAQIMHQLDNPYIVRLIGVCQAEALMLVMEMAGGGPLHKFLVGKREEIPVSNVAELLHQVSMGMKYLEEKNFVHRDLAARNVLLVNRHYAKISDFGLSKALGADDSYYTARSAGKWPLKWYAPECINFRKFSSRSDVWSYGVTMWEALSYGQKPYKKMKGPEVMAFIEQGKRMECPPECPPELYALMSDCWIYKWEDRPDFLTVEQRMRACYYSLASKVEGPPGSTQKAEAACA

Structure (SMILES): C=CC(=O)N1CCCN(C(=O)c2cc(Sc3cnc(NC(=O)C4CC4)s3)c(C)cc2OC)C[C@H]1C [CPI-818]
- persistence of blockade of tracer binding to ITK (ITK [1]; after jump dilution): greater than 24 h
- reversibility of ITK inhibition on dilution (ITK [1]): did not dissociate upon dilution
- reversibility of ITK inhibition on dilution (ITK [1]; listed as CP-818): irreversible
- total T cell proliferation (human T cells (PBMC); 10 μM): abrogates total T cell proliferation
- total number of cells and cell viability (human T cells (PBMC); ≥1 μM / high concentrations): reduced the total number of cells while maintaining cell viability
- receptor occupancy at 400 mg (ITK [2]; human, 400 mg BID and 600 mg BID, read-out: steady state trough ITK occupancy): ~90%
- steady state peak ITK occupancy, mean (ITK [2]; patients, 100-600 mg BID): at least 90%
- IC50 [3]: 136 nM
- remaining activity at 1 µM (ZAP-70): 59%
- remaining activity at 1 µM (RLK): 70%
